Laboratory results reported in PubChem BioAssay AID330 (DTP/NCI, 2004).
Where “and” joins values, the source holds several entries; their conditions need not be identical. Equal values may be shown once. Toxic doses and inconclusive results are not listed.

Tested on: P388 leukemia ip, CD2F1 mice, survival T/C
Assay: NCI In Vivo Anticancer Drug Screen. Data for tumor model P388 Leukemia (intraperitoneal) in CD2F1 (CDF1) mice
Details: endpoint: median survival time, higher = longer survival
How it was run: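 Mice carrying the transplanted tumor received test compound or vehicle. Survival was recorded in each group, and the value is the treated-group measurement divided by that of the vehicle-treated control group.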

[1] = dose: 25.0 mg/kg/injection, schedule: Q01DX009 (ip), vehicle: other
[2] = dose: 50.0 mg/kg/injection, schedule: Q01DX009 (ip), vehicle: other
[3] = dose: 100.0 mg/kg/injection, schedule: Q01DX009 (ip), vehicle: other
[4] = dose: 200.0 mg/kg/injection, schedule: Q01DX009 (ip), vehicle: other
[5] = dose: 100.0 mg/kg/injection, schedule: Q04DX003 (ip), vehicle: Klucel (hydroxypropylcellulose) (HPC)
[6] = dose: 50.0 mg/kg/injection, schedule: Q01DX009 (ip), vehicle: saline with Tween-80
[7] = dose: 100.0 mg/kg/injection, schedule: Q01DX009 (ip), vehicle: saline with Tween-80
[8] = dose: 100.0 mg/kg/injection, schedule: Q01DX005 (ip), vehicle: saline
[9] = dose: 50.0 mg/kg/injection, schedule: Q01DX009 (ip), vehicle: Klucel (hydroxypropylcellulose) (HPC)
[10] = dose: 100.0 mg/kg/injection, schedule: Q01DX009 (ip), vehicle: Klucel (hydroxypropylcellulose) (HPC)
[11] = dose: 200.0 mg/kg/injection, schedule: Q01DX009 (ip), vehicle: Klucel (hydroxypropylcellulose) (HPC)
[12] = dose: 50.0 mg/kg/injection, schedule: Q01DX005 (ip), vehicle: saline with Tween-80
[13] = dose: 100.0 mg/kg/injection, schedule: Q01DX005 (ip), vehicle: saline with Tween-80
[14] = dose: 200.0 mg/kg/injection, schedule: Q01DX005 (ip), vehicle: saline with Tween-80
[15] = dose: 100.0 mg/kg/injection, schedule: Q04DX002 (ip), vehicle: saline with Tween-80
[16] = dose: 200.0 mg/kg/injection, schedule: Q04DX002 (ip), vehicle: saline with Tween-80
[17] = dose: 400.0 mg/kg/injection, schedule: Q04DX002 (ip), vehicle: saline with Tween-80
[18] = dose: 200.0 mg/kg/injection, schedule: Q01DX009 (ip), vehicle: saline with Tween-80

In the case of `Nc1cc([N+](=O)[O-])ccc1-c1ccc(NC(=O)CCNC=O)cc1`, the T/C (dose: 12.5 mg/kg/injection, schedule: Q01DX009 (ip), vehicle: other) was 93 % of control, the T/C [1] was 97 % of control and the T/C [2] was 90 % of control. For the same compound, the T/C [3] was 93 % of control and the T/C [4] was 91 % of control.
For `CCC1OC(=O)C2C(c3ccccc3)=NOC2[C@H]1C` (stereo partly specified), the T/C (dose: 60.0 mg/kg/injection, schedule: Q01DX005 (ip), vehicle: saline with Tween-80) was 102 % of control, the T/C (dose: 120.0 mg/kg/injection, schedule: Q01DX005 (ip), vehicle: saline with Tween-80) was 101 % of control and the T/C (dose: 240.0 mg/kg/injection, schedule: Q01DX005 (ip), vehicle: saline with Tween-80) was 94 % of control.
With `C=CCCC(=O)SC(C)(C)C` the T/C [5] was 112 % of control, the T/C (dose: 200.0 mg/kg/injection, schedule: Q04DX003 (ip), vehicle: Klucel (hydroxypropylcellulose) (HPC)) was 110 % of control and the T/C (dose: 400.0 mg/kg/injection, schedule: Q04DX003 (ip), vehicle: Klucel (hydroxypropylcellulose) (HPC)) was 103 % of control.
For `CC1(C)C2C=CC(OC2=O)C1(C)NC(=O)OCc1ccccc1` (stereo unspecified), the T/C (dose: 50.0 mg/kg/injection, schedule: Q01DX009 (ip), vehicle: saline) was 96 % of control, the T/C (dose: 100.0 mg/kg/injection, schedule: Q01DX009 (ip), vehicle: saline) was 98 % of control and the T/C (dose: 200.0 mg/kg/injection, schedule: Q01DX009 (ip), vehicle: saline) was 99 % of control.
With `O=[N+]([O-])c1ccccc1OCC(O)CCl` (stereo unspecified) the T/C [6] was 102 % of control and the T/C [7] was 99 % of control.
`O=C1OC[C@@H]2C=CC[C@H]12` was tested, and the T/C (dose: 50.0 mg/kg/injection, schedule: Q01DX005 (ip), vehicle: saline) was 100 % of control, the T/C [8] was 100 % of control and the T/C (dose: 200.0 mg/kg/injection, schedule: Q01DX005 (ip), vehicle: saline) was 107 % of control.
For `CC1CN1P(=S)(N1CCCC1)N1CC1C` (stereo unspecified), the T/C (dose: 64.0 mg/kg/injection, schedule: Q04DX003 (ip), vehicle: saline with Tween-80) was 116 % of control, the T/C (dose: 66.0 mg/kg/injection, schedule: Q01DX009 (ip), vehicle: saline with Tween-80) was 150 % of control and the T/C [7] was 150 % of control. For the same compound, the T/C (dose: 150.0 mg/kg/injection, schedule: Q01DX009 (ip), vehicle: saline with Tween-80) was 86 % of control, the T/C (dose: 200.0 mg/kg/injection, schedule: Q04DX003 (ip), vehicle: saline with Tween-80) was 159 % of control and the T/C (dose: 256.0 mg/kg/injection, schedule: Q04DX003 (ip), vehicle: saline with Tween-80) was 100 % of control.
In the case of `Cn1c(=O)c2c(ncn2CCNC(c2ccccc2)c2ccc(Br)cc2)n(C)c1=O` (stereo unspecified), the T/C (dose: 6.25 mg/kg/injection, schedule: Q01DX005 (ip), vehicle: alkali diluted with saline) was 100 % of control, the T/C (dose: 12.5 mg/kg/injection, schedule: Q01DX005 (ip), vehicle: alkali diluted with saline) was 96 % of control and the T/C (dose: 25.0 mg/kg/injection, schedule: Q01DX005 (ip), vehicle: alkali diluted with saline) was 107 % of control.
In the case of `CC(=O)Nc1ccc(NN=O)cn1`, the T/C (dose: 3.12 mg/kg/injection, schedule: Q01DX009 (ip), vehicle: water) was 113 % of control, the T/C (dose: 6.25 mg/kg/injection, schedule: Q01DX009 (ip), vehicle: water) was 106 % of control and the T/C (dose: 12.5 mg/kg/injection, schedule: Q01DX009 (ip), vehicle: water) was 110 % of control and 114 % of control. For the same compound, the T/C (dose: 25.0 mg/kg/injection, schedule: Q01DX009 (ip), vehicle: water) was 116 % of control.
For `CC1CCc2c(c3ccc(O)cc3oc2=O)C1` (stereo unspecified), the T/C (dose: 50.0 mg/kg/injection, schedule: Q01DX005 (ip), vehicle: Klucel (hydroxypropylcellulose) (HPC)) was 101 % of control, the T/C (dose: 100.0 mg/kg/injection, schedule: Q01DX005 (ip), vehicle: Klucel (hydroxypropylcellulose) (HPC)) was 96 % of control and the T/C (dose: 200.0 mg/kg/injection, schedule: Q01DX005 (ip), vehicle: Klucel (hydroxypropylcellulose) (HPC)) was 92 % of control.
In the case of `CC(C)=CCc1c2c(c3occ(-c4ccc(O)cc4)c(=O)c3c1O)C=CC(C)(C)O2`, the T/C (dose: 25.0 mg/kg/injection, schedule: Q01DX009 (ip), vehicle: Klucel (hydroxypropylcellulose) (HPC)) was 90 % of control, the T/C [9] was 90 % of control and the T/C [10] was 88 % of control. The T/C [11] was 88 % of control.
`CCOC(=O)C1=CC(Oc2cc(NS(=O)(=O)c3ccccc3)ccc2O)C(C(=O)OCC)=CC1Oc1cc(NS(=O)(=O)c2ccccc2)ccc1O` (stereo unspecified) was tested, and the T/C (dose: 37.5 mg/kg/injection, schedule: Q01DX001 (ip), vehicle: saline with Tween-80) was 105 % of control, the T/C (dose: 75.0 mg/kg/injection, schedule: Q01DX001 (ip), vehicle: saline with Tween-80) was 100 % of control and the T/C (dose: 150.0 mg/kg/injection, schedule: Q01DX001 (ip), vehicle: saline with Tween-80) was 100 % of control.
In the case of `CCCCCCC(=O)/C=C/c1cc(Cl)cc(Cl)c1`, the T/C [12] was 95 % of control, the T/C [13] was 91 % of control and the T/C [14] was 92 % of control.
`Clc1cccc(N=Cc2ccc(C=Nc3cccc(Cl)c3)cc2)c1` was tested, and the T/C [9] was 94 % of control and the T/C [10] was 98 % of control.
In the case of `N=C1SCC(=O)C1C(=O)O` (stereo unspecified), the T/C [12] was 105 % of control, the T/C [13] was 119 % of control and the T/C [14] was 110 % of control.
For `COc1ccc2ncc(C)c(COC(C)=O)c2c1`, the T/C [15] was 102 % of control, the T/C [16] was 93 % of control and the T/C [17] was 97 % of control.
In the case of `CN(C)C(=O)Nc1cccc2c(NC(=O)N(C)C)cccc12`, the T/C [9] was 100 % of control and 103 % of control, the T/C [10] was 100 % of control (2×) and 93 % of control and the T/C [11] was 99 % of control and 87 % of control. The T/C (dose: 400.0 mg/kg/injection, schedule: Q01DX009 (ip), vehicle: Klucel (hydroxypropylcellulose) (HPC)) was 91 % of control.
For `CCCCn1c(C)nc2cc(C(F)(F)F)cc(N)c21`, the T/C [6] was 99 % of control, the T/C [7] was 101 % of control and the T/C [18] was 108 % of control.
With `COc1ccc2c(ccc3c(=O)c4c([nH]c32)CCC4)n1` the T/C (dose: 12.5 mg/kg/injection, schedule: Q04DX002 (ip), vehicle: saline with Tween-80) was 111 % of control, the T/C (dose: 25.0 mg/kg/injection, schedule: Q04DX002 (ip), vehicle: saline with Tween-80) was 114 % of control and the T/C (dose: 50.0 mg/kg/injection, schedule: Q04DX002 (ip), vehicle: saline with Tween-80) was 95 % of control.
For `O=C(/C(=C\c1ccccc1[N+](=O)[O-])S(=O)(=O)c1ccccc1)c1ccc([N+](=O)[O-])cc1`, the T/C [12] was 98 % of control, the T/C [13] was 103 % of control and the T/C [14] was 95 % of control.
With `O=C1CCC2ON=C(Br)C12` (stereo unspecified) the T/C (dose: 20.0 mg/kg/injection, schedule: Q01DX005 (ip), vehicle: distilled water + Tween-80) was 110 % of control, the T/C (dose: 40.0 mg/kg/injection, schedule: Q01DX005 (ip), vehicle: distilled water + Tween-80) was 112 % of control and the T/C (dose: 80.0 mg/kg/injection, schedule: Q01DX005 (ip), vehicle: distilled water + Tween-80) was 112 % of control.
In the case of `COC1c2cc3ccccc3nc2-c2ccccc2C1(C)C` (stereo unspecified), the T/C [1] was 99 % of control, the T/C [2] was 96 % of control and the T/C [3] was 93 % of control. The T/C [4] was 89 % of control and the T/C (dose: 400.0 mg/kg/injection, schedule: Q01DX009 (ip), vehicle: other) was 89 % of control.
In the case of `COc1cc2c(cc1OC)C13CCCC4(OCCO4)C1=CC2(C)O3` (stereo unspecified), the T/C [6] was 101 % of control, the T/C [7] was 94 % of control and the T/C [18] was 93 % of control.
For `C1=NCCCCCCCN=Cc2ccccc2NCCNc2ccccc21`, the T/C (dose: 100.0 mg/kg/injection, schedule: Q04DX003 (ip), vehicle: saline) was 94 % of control, the T/C (dose: 200.0 mg/kg/injection, schedule: Q04DX003 (ip), vehicle: saline) was 92 % of control and the T/C (dose: 400.0 mg/kg/injection, schedule: Q04DX003 (ip), vehicle: saline) was 108 % of control.
`COc1ccc(Cl)cc1NC(=O)c1ccccc1F` was tested, and the T/C [9] was 120 % of control, the T/C [10] was 104 % of control and the T/C [11] was 118 % of control.
In the case of `NC(=O)c1cncc(CCC(O)C(=O)O)c1` (stereo unspecified), the T/C (dose: 25.0 mg/kg/injection, schedule: Q04DX003 (ip), vehicle: Klucel (hydroxypropylcellulose) (HPC)) was 96 % of control, the T/C (dose: 50.0 mg/kg/injection, schedule: Q04DX003 (ip), vehicle: Klucel (hydroxypropylcellulose) (HPC)) was 91 % of control and the T/C [5] was 100 % of control.
In the case of `CC1=C(C(=O)Nc2ccccc2)C(c2ccc(Cl)cc2Cl)C(C(=O)Nc2ccccc2)=C(C)N1`, the T/C [15] was 99 % of control, the T/C [16] was 101 % of control and the T/C [17] was 92 % of control.
In the case of `CCCCN1COC2CCCCC21` (stereo unspecified), the T/C (dose: 25.0 mg/kg/injection, schedule: Q01DX005 (ip), vehicle: saline) was 113 % of control and the T/C [8] was 121 % of control.
